The text below walks through data of BindingDB's records for doi:10.1186/1471-2091-12-59 (Ghent University, 2011).

In assay [1] the target is T1, Heme-binding protein A (Glaesserella parasuis, UniProt B8F653).
T1 sequence (B8F653 whole entry): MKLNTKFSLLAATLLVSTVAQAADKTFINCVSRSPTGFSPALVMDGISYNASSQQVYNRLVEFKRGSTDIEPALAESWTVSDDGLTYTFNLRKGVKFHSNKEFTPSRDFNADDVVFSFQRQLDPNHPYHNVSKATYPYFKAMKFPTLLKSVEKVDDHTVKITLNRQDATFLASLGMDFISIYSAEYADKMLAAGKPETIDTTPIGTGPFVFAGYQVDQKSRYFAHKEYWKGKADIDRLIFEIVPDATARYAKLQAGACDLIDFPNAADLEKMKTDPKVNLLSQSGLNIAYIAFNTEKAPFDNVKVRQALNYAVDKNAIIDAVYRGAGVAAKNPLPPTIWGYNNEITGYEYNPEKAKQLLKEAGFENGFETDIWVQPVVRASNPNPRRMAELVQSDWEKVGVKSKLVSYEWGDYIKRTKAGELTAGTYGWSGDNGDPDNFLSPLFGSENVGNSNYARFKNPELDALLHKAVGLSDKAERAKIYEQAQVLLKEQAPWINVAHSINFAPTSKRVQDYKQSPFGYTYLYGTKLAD
Nature of the assay: Isothermal Titration Calorimetry (ITC). The conditions noted are these: pH 7.4; 37 °C. The procedure:
(§1) Purified test proteins were dialyzed overnight against 10 mM Tris-HCl, pH 7.4, at 4°C. The resultant dialysis buffer was then used to dissolve the test compounds. Titrations were always preceded by an initial injection of 3 μL and were carried out using 10-μL injections applied 300 s apart. The sample was stirred at a speed of 400 rpm throughout.
(Isothermal titration calorimetry measures the heat released or taken up as one component is titrated into another.)

For assay [2], the target named is Heme-binding protein A (Actinobacillus pleuropneumoniae serovar 9 str. CVJ13261, UniProt A3N3U8). Description: Isothermal Titration Calorimetry (ITC). The conditions noted are these: pH 7.4; 37 °C. The procedure:
as §1

Heme-binding protein A (Actinobacillus pleuropneumoniae serovar 9 str. CVJ13261, UniProt A3N3U8), sequence (A3N3U8 whole entry): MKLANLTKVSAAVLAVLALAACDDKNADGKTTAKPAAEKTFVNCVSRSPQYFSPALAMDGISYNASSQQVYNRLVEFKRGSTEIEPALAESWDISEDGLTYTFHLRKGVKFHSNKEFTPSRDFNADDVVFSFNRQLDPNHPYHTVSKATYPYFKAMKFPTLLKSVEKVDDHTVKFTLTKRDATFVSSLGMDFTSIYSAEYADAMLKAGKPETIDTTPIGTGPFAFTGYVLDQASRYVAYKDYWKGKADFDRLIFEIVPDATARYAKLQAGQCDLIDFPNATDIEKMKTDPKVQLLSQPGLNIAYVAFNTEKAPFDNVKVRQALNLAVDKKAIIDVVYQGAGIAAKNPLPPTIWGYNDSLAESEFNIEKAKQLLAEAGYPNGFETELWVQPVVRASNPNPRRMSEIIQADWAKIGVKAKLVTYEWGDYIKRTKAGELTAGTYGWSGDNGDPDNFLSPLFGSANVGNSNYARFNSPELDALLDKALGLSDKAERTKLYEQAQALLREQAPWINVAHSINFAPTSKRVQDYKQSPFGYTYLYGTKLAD

As a reminder, the Kd is the equilibrium constant for the complex coming apart. The compound `N[C@@H](CCC(=O)N[C@@H](CS)C(=O)NCC(=O)O)C(=O)O` [GLUTATHIONE] yielded a Kd at Heme-binding protein A [1] of 1900 nM.
With `CSC[C@H](NC(=O)CC[C@H](N)C(=O)O)C(=O)NCC(=O)O` [S-methylglutathione], the Kd was 1170 nM on Heme-binding protein A [2] and 900 nM at Heme-binding protein A [1].
